{"source": "patent US20170204076A1", "about": "“SYNTHESIS AND USE OF AMINO LIPIDS” (INCELLA GMBH, priority 2014, published 2017)", "key": {"HEK 293 cells": {"system": "HEK 293 cells", "test": "Primary screen of lipid reagents: plasmid DNA transfection, YFP fluorescence relative to total cell number (Hoechst)", "assay_type": "cell-based", "details": "for cell toxicity: Hoechst stained apoptotic nuclei, microscope images; for transfection efficiency: HEK 293 cells, plasmid DNA (YFP), 20 to 24 hours after transfection", "text": "Cell line: HEK 293 cells Screen format: 96-well Detection (read-out): YFP fluorescence relative to total cell number (total cell number assessed using the nuclear dye, Hoechst—see FIGS. 1 and 2)\nA commercially available liposomal transfection reagent was used as a reference (reference reagent) according to manufacturers' instructions, see FIGS. 1 and 2.\nAll steps performed in 96 tube/plate format using 8- or 12-channel multi-pipettes. Amounts shown are for duplicate (2×) wells of a 96-well plate.\n1. 0.8 μl lipid reagents diluted in 20 μl 50 mmol/l NaOAc buffer, pH 5.0. 2. Diluted lipid reagents from (1) were added to 150 ng DNA (25 ng pH2B-YFP+125 ng pCS-LacZ plasmids) in 20 μl NaOAc buffer, pH 5.0 and mixed with pipette action. 3. After 30 min incubation at RT, added 100 μl freshly resuspended cells (5×10^4 cells/well DMEM culture medium supplemented with 10% fetal calf serum) and mixed with pipette. 4. Duplicate 65 μl aliquots of the cells+lipid/DNA complexes were immediately transferred to separate wells of a 96-well culture plate and placed in 37° C. incubator with 5% CO2. 5. 20 to 24 hours after initial transfection of cells, Hoechst 33258 dye was added to cells at a final concentration of 0.2 μg/ml and cells incubated for a further 30 min at 37° C. Cells were then placed on an inverted microscope and 2 independent sets of images of the cells captured from each well as shown in FIGS. 1 and 2.\nFor each sample, 3 images were captured: bright field image of cells (FIGS. 1 and 2 upper panels), Hoechst dye stained image of total cell nuclei (FIGS. 1 and 2 middle panels) and YFP images showing cells successfully transfected with plasmid DNA and expressing YFP protein (FIGS. 1 and 2 lower panels). Microscope images of transfected HEK 293 cells, showing both the transfection efficiency and toxicity level of two of our lipid molecules (#30 and #60) compared to a commonly used commercial transfection reagent (reference reagent)."}, "[1]": {"system": "mouse embryonic fibroblast (MEF) cells", "test": "Transfection of LRP6 siRNA in MEF cells, Western Blot of LRP6 protein", "assay_type": "cell-based", "details": "for siRNA mediated gene silencing compared with the commercial reagent A: LRP6 siRNA, MEF cells cultured for 24 hours, Western Blot; for ability to deliver siRNA molecules to cells: see FIGS. 5 and 6", "experimental": "In order to screen for this two different types of cells were used to test the ability of our lipid reagents to deliver siRNA targeting Low density lipoprotein receptor related protein 6 (LRP6). This is a 200 kD single-pass transmembrane receptor for Wnt ligands and activates the Wnt/b-catenin signalling pathway. It is expressed at relatively high levels in MEF cells.\nAssay: Transfection of siRNA in mouse embryonic fibroblast (MEF) cells\nAll steps performed in 0.2 ml PCR tubes and 96 well plate format. Amounts shown are for one well of a 96-well plate.\n1. 0.25 μl lipid reagents diluted in 8 μl 50 mmol/l NaOAc buffer, pH 5.0. 2. Diluted lipid reagents from (1) added to 1 pmol (0.2 μl of 5 μmol/1) siRNA molecules in 8 μl NaOAc buffer, pH 5.0 and mixed with pipette action. The siRNA molecules used had either a scrambled sequence not specific for any known gene (Con siRNA), or a sequence specifically targeting the endogenous mRNA from the LRP6 gene (LRP6 siRNA). 3. After 30 min incubation at RT, added 50 μl freshly resuspended cells (2×10^4 cells/well DMEM culture medium supplemented with 10% fetal calf serum) in one well of a 96-well plate and placed in 37° C. incubator with 5% CO2. 4. 24 hours after initial transfection, cells, were lysed in 25 μl detergent buffer (50 mmol/l Tris, 1% Triton X-100, 0.15 mol/l NaCl, pH 7.0, containing protease and phosphatase inhibitors), spun to remove insoluble cell debris and […] clarified lysates added to 10 μl of 4× SDS loading buffer (250 mmol/l Tris HCl, 40% Glycerol, 8% SDS, 0.01% Bromophenol Blue, 5% 2-Mercaptoethanol, pH 6.8). 5. Samples were denatures by heating at 96° C. for 2 min and 12 μl loaded on a 9% SDS-PAGE gels for separation of proteins according to molecular weight. Separated proteins were transferred from the SDS-PAGE gel to nitrocellulose membrane for Western Blot (WB) analysis. 6. WB was performed using an automated BioLane HTI instrument using antibodies against LRP6 and α-tubublin proteins. HRP linked secondary antibodies and chemiluminescence were used to detect the proteins on the membrane.\nFIGS. 5 and 6 show the Western Blot (WB) analysis of LRP6 protein from total lysates of MEF (mouse embryonic fibroblast) cells transfected with the indicated siRNA molecules and cultured for 24 hours."}}}
{"smiles": "CCCCCCCCCCCSCC(COCC(O)CNCCN(CC)CC)SCCCCCCCCCCC", "note": "(stereo not shown) [Example 64, 3-ethyl-12-(undecylthio)-10-oxa-14-thia-3,6-diazapentacosan-8-ol]", "values": [{"measurement": "cell toxicity", "setting": "HEK 293 cells", "value": "very low toxicity"}, {"measurement": "siRNA mediated gene silencing compared with the commercial reagent A", "setting": "[1]", "value": "quite effective"}, {"measurement": "ability to deliver siRNA molecules to cells", "setting": "[1]", "value": "very efficiently deliver siRNA molecules to cells"}]}
{"smiles": "CCCCCCCCCCCSCC(CNC(=O)NCCCN(CC)CC)SCCCCCCCCCCC", "note": "(stereo not shown) [Example 30, 1-(2,3-bis(undecylthio)propyl)-3-(3-(diethylamino)propyl)urea]", "values": [{"measurement": "transfection efficiency", "setting": "HEK 293 cells", "value": "approximately 90%"}, {"measurement": "cell toxicity", "setting": "HEK 293 cells", "value": "low cell toxicity"}]}
{"smiles": "CCCCCCCCCCCSCC(CNC(=O)NCCN(C)C)SCCCCCCCCCCC", "note": "(stereo not shown) [Example 24, 1-(2,3-bis(undecylthio)propyl)-3-(2-(dimethylamino)ethyl)urea]", "values": [{"measurement": "cell toxicity", "setting": "HEK 293 cells", "value": "very low toxicity"}, {"measurement": "siRNA mediated gene silencing compared with the commercial reagent A", "setting": "[1]", "value": "quite effective"}, {"measurement": "ability to deliver siRNA molecules to cells", "setting": "[1]", "value": "very efficiently deliver siRNA molecules to cells"}]}
{"smiles": "CCCCCCCCCCCCSCC(COCC(O)CNCCCN(CC)CC)SCCCCCCCCCCCC", "note": "(stereo not shown) [Example 60, 13-(dodecylthio)-3-ethyl-11-oxa-15-thia-3,7-diazaheptacosan-9-ol]", "values": [{"measurement": "transfection efficiency", "setting": "HEK 293 cells", "value": "approximately 90%"}, {"measurement": "cell toxicity", "setting": "HEK 293 cells", "value": "low cell toxicity"}]}
